Reference: PubChem BioAssay AID463199 (Broad Institute, 2010)
Calls of active or inactive are those of the source.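 The calls were made as follows: active = AC50, the dose giving half-maximal effect, exceeds a fixed cutoff for a compound that rescues yeast growth under heat; inactive = the rest, inconclusive results apart.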

System: S. cerevisiae Burl-1 ts mutant growth, BacTiter-Glo, 38.5C 24 h
Experiment: restored growth of temperature-sensitive Burl-1 yeast – whole organism, S. cerevisiae, Burl-1 ts mutant, luminescence, counter-screen for SUMOylation pathway inhibitor project, dose response (AID 463199)

SMILES	AC50
CN1CCCC(n2nc(Cc3ccc(Cl)cc3)c3ccccc3c2=O)CC1 (stereo not given)	> 42 µM (inactive)
C/C=C/C(=O)N1c2ccc(C)cc2C(C)=CC1(C)C	> 42 µM (inactive)
O=C(O)c1ccc(N=C2NC(=O)C(CO)(CO)S2)cc1	> 42 µM (inactive)
CC1(C)CC(=O)C2=C(C1)Oc1ncn(CCO)c(=N)c1C2c1ccccc1 (stereo not given)	> 42 µM (inactive)
c1ccc(C(c2ccccc2)N2CCN(C(c3ccccn3)c3nnnn3C3CCCC3)CC2)cc1 (stereo not given)	> 42 µM (inactive)
CCCNC(=O)Cn1nc(C)n2c(cc3cc(F)ccc32)c1=O	> 42 µM (inactive)
CN(C)CC/C=C1\c2ccccc2Sc2ccc(Cl)cc21	> 42 µM (inactive)
CCOC(=O)Cc1csc(NC(=O)NC2(C(F)(F)F)Oc3ccccc3O2)n1	> 42 µM (inactive)
O=C(CP(=O)(c1ccccc1)c1ccccc1)N1CCOCC1	> 42 µM (inactive)
O=C(CSc1ccc(Br)cc1)Nc1ccccc1N1CCOCC1	> 42 µM (inactive)
O=C(Cn1cnc2ccccc2c1=O)c1ccc(OC(F)F)cc1	> 42 µM (inactive)
O=C(COC(=O)/C=C/c1ccco1)Nc1ncc(C(F)(F)F)cc1Cl	> 42 µM (inactive)
CCCCn1c(N)c(N(CCOC)C(=O)c2cnccn2)c(=O)[nH]c1=O	> 42 µM (inactive)
O=C(CSc1cccc2cccnc12)Nc1cc(C(=O)O)cc(C(=O)O)c1	> 42 µM (inactive)
COc1cc2c(cc1OC)CN(C(=O)Cc1c(F)cccc1Cl)CC2	> 42 µM (inactive)
COc1ccc(NC(=O)CC(C)C)c(OC)c1	> 42 µM (inactive)
CCCCC1=CC2=CC(=O)C(C)(OC(=O)CC)C(=O)C2=CN1CCc1ccc(Br)cc1 (stereo not given)	> 42 µM (inactive)
CC(C)(c1ccccc1)c1ccc(OCCN2CCOCC2)cc1	> 42 µM (inactive)
CN(C)c1ccc2nc3ccc(=[N+](C)C)cc-3sc2c1	> 42 µM (inactive)
CCCCn1c(/C=N/Nc2nc3ccccc3[nH]2)nc2ccccc21	> 42 µM (inactive)
CCCCC(=O)NC(=S)Nc1cccc(C(=O)O)c1	> 42 µM (inactive)
CCCCOc1ccc(C(O)C(CN2CCOCC2)c2ccccc2)cc1 (stereo not given)	> 42 µM (inactive)
Cc1ccc(SCCC(=O)Nc2ccc(OCc3ccccc3)cc2)cc1	> 42 µM (inactive)
O=C(CCSc1ccccc1)NNC(=O)c1ccccc1F	> 42 µM (inactive)
CC(NC(=O)C1CCCN(S(=O)(=O)N2CCOCC2)C1)c1ccccc1 (stereo not given)	> 42 µM (inactive)

SMILES	AC50
CC1=C(C(=O)Nc2ccccc2)C(c2ccccc2[N+](=O)[O-])NC(=O)N1 (stereo not given)	> 42 µM (inactive)
S=C(Nc1ccccc1Cl)N1CCOCC1	> 42 µM (inactive)
CN(C)S(=O)(=O)c1ccc(Cl)c(NC(=O)CN2C(=O)NC(C)(C3CC3)C2=O)c1 (stereo not given)	> 42 µM (inactive)
CN1C(=O)NC(=O)[C@]2(Cc3ccccc3N3CCN(c4ccccc4)CC32)C1=O (stereo not given in full)	> 42 µM (inactive)
COc1ccccc1CNC(=O)C(C)Sc1ccc(C)cc1 (stereo not given)	> 42 µM (inactive)
Cc1nc2c3ccccc3nc(NNC(=O)CCC(=O)N3CCCC(C)C3)n2n1 (stereo not given)	> 42 µM (inactive)
COc1cccc(NC(=O)CN(C)C(=O)c2ccccc2OCc2c(C)noc2C)c1	> 42 µM (inactive)
CCCNC(=O)c1cc2c(C(F)(F)F)nn(C)c2s1	> 42 µM (inactive)
COc1ccc(OCC(=O)O/N=C(\N)Cc2ccc(Cl)cc2)cc1	> 42 µM (inactive)
CN1c2ccccc2-c2nc3ccccc3n2C1c1ccncc1 (stereo not given)	> 42 µM (inactive)
O=C(Cc1ccc(Cl)cc1Cl)OCC(=O)c1ccc[nH]1	> 42 µM (inactive)
CCN1CCN(CC(=O)N2N=CCC2c2ccccc2)CC1 (stereo not given)	> 42 µM (inactive)
COC(=O)c1cc(N=Nc2c(C)[nH]c3ccccc23)cc(C(=O)OC)c1	> 42 µM (inactive)
CCOc1ccc(/C=N/NS(=O)(=O)c2ccc(C)cc2)cc1OC	> 42 µM (inactive)
O=C(N/N=C/c1cccc([N+](=O)[O-])c1)C1COc2ccccc2O1 (stereo not given)	> 42 µM (inactive)
CCC(C)NCCCCOc1cc(C)cc(C(C)C)c1 (stereo not given)	> 42 µM (inactive)
Nc1ccc(N2CCN(c3ccc(F)cc3)CC2)cc1	> 42 µM (inactive)
OC[C@@H](O)CCl	> 42 µM (inactive)
Cc1ccc(O)c(C(=O)CC(=O)c2cccc(F)c2)c1	20.1 µM
CS(=O)(=O)N(CC(=O)N1CCCCCC1)Cc1ccc(Cl)cc1	> 42 µM (inactive)
CCC(c1nc2ccccc2c(=O)n1-c1nc2ccccc2s1)N1C(=O)c2ccccc2C1=O (stereo not given)	> 42 µM (inactive)
N#Cc1ccc(C23CC4(C2)[C@H](CN(Cc2ccc(C(F)(F)F)cc2)[C@@H]4c2ccccc2)C3c2ccc(C(F)(F)F)cc2)cc1 (stereo not given in full)	> 42 µM (inactive)
CCN(CC)C(=O)CSC(Nc1cccc(F)c1)=C(C#N)C#N	> 42 µM (inactive)
CSc1nc2ccc(NC(=O)c3c(F)cccc3F)cc2s1	> 42 µM (inactive)
O=C(CN1CCN(Cc2ccc(Cl)cc2)CC1)N/N=C/c1ccncc1	> 42 µM (inactive)

SMILES	AC50
Fc1ccc(-c2n[nH]c(=S)n2CC2CCCO2)cc1 (stereo not given)	> 42 µM (inactive)
COc1ccc(NC(=O)c2ccc(S(=O)(=O)N(C)c3ccccc3)cc2)cn1	> 42 µM (inactive)
Cn1cc(Br)c(C(=O)Nc2nccs2)n1	> 42 µM (inactive)
Cc1ccc(S(=O)(=O)CCC(=O)OCC(=O)N(C)C2CCS(=O)(=O)C2)cc1 (stereo not given)	> 42 µM (inactive)
Cc1cc(C#Cc2c(-c3ccccc3)n(C)c3ccccc23)ccc1F	> 42 µM (inactive)
Cc1ccc(C)n1-n1cnc2sc3c(c2c1=O)CCCCC3	> 42 µM (inactive)
Cc1cccc(-[n+]2c(-c3cccc(Br)c3)[nH]c3nc4ccccc4nc32)c1	> 42 µM (inactive)
CCCCCC(=O)Nc1nnn(CCC)n1	> 42 µM (inactive)
CC(=O)N(C(C)=O)c1c(C#N)c(C)n(-c2ccccc2)c1C(=O)c1ccccc1	> 42 µM (inactive)
CCOc1ccc(CCN2CN(C3CCCCC3)CNC2=S)cc1OCC	> 42 µM (inactive)
Cc1ccc(NC(=O)CC2CS(=O)(=O)CC2CC(=O)Nc2ccc(C)c(C)c2)cc1C (stereo not given)	19.2 µM
O=C(OCc1nnc(-c2ccccc2)o1)c1ccc([N+](=O)[O-])o1	> 42 µM (inactive)
Cc1ccccc1C(=O)NNC(=S)Nc1cccc(C(F)(F)F)c1	> 42 µM (inactive)
COc1ccc(NC(=O)Cn2c(=O)cnc3ccccc32)cc1S(=O)(=O)N1CCCCC1	> 42 µM (inactive)
CCCCCCCN1C(Nc2ccccc2)=NC[C@@H]1CC(C)C	> 21 µM (inactive)
Cc1nn(-c2ccccc2)c(N)c1N=Nc1cccc(S(=O)(=O)N2CCOCC2)c1	> 42 µM (inactive)
CN(C)C(=O)CSc1nc2ccc(N3C(=O)c4ccccc4C3=O)cc2s1	> 42 µM (inactive)
O=C(CCc1ccccc1)N1CCN(c2ccccc2F)CC1	> 42 µM (inactive)
CCOC(=O)C1CCCN(C(=O)c2cc(-c3ccc(F)cc3)nc3ccccc23)C1 (stereo not given)	> 42 µM (inactive)
Cc1ccc(NS(=O)(=O)c2cc(C(=O)Nc3cccc([N+](=O)[O-])c3)ccc2C)cc1	> 42 µM (inactive)
COCCn1c(SCC(=O)Nc2nc3ccccc3s2)nnc1-c1ccoc1C	> 42 µM (inactive)
COC(=O)CNC(=O)CSc1ccccn1	> 42 µM (inactive)
COc1ccc(NS(=O)(=O)c2ccc(OCC(=O)N3CCOCC3)cc2)cc1Cl	> 42 µM (inactive)
O=C(CCC1CCCN(C(=O)Cc2cccc(F)c2)C1)N1CCN(c2ccccn2)CC1 (stereo not given)	> 42 µM (inactive)
CCOC(=O)c1c(C)[nH]c2c1cc(O)c1ccccc12	> 42 µM (inactive)

SMILES	AC50
Nc1nnc(COc2ccc(Br)cc2Br)s1	> 42 µM (inactive)
Cc1ccc(N(C(=O)Cn2nnc3ccccc32)C(C(=O)NC2CCCCC2)c2cn(C)nc2C)cc1 (stereo not given)	> 21 µM (inactive)
COc1ccc(NC(=O)CN(c2ccc(C(C)C)cc2)S(=O)(=O)c2c(C)noc2C)cc1OC	> 42 µM (inactive)
CCOc1c(P(=S)(N(C)C)N(C)C)c(C)nn1-c1ccccc1	> 42 µM (inactive)
O=C(Nc1ccsc1C(=O)O)c1cccc(C(F)(F)F)c1	> 42 µM (inactive)
CCOC(=O)COc1nc(-c2ccc(C)cc2)cc(-c2ccco2)c1C#N	> 42 µM (inactive)
O=C(NCC1CCN(Cc2ccccc2Cl)CC1)Nc1ccccc1F	> 42 µM (inactive)
Cc1cc(C)cc(OCC(=O)NC2CCCc3ccccc32)c1 (stereo not given)	> 42 µM (inactive)
CCOC(=O)c1sc(NC(=O)C(CC)OC(=O)c2ccco2)nc1C (stereo not given)	> 42 µM (inactive)
CSCCc1nc(SCC(=O)Nc2nnc(C)s2)[nH]c1C	> 42 µM (inactive)
CC(Oc1ccccc1[N+](=O)[O-])C(=O)N/N=C/c1ccoc1 (stereo not given)	> 42 µM (inactive)
COc1ccc(-c2cc(C(=O)Nc3cc(C)ccc3O)no2)cc1	> 42 µM (inactive)
Cc1nc2ccccc2n(CC(=O)Nc2cc(Cl)cc(Cl)c2)c1=O	> 42 µM (inactive)
Cc1cccn2c(=O)c3cc(C(=O)NCCc4ccccc4)sc3nc12	> 42 µM (inactive)
CCCc1nn2c(=O)cc(CSCC(=O)Nc3ccc(OC)cc3)nc2s1	> 42 µM (inactive)
O=C(O)c1c(C(=O)O)c(-c2ccc(F)cc2)n2c1CCC2	> 42 µM (inactive)
CC(C)C1OC2(C)OC(=N)C1(C#N)C(C#N)(C#N)C2c1ccccc1 (stereo not given)	> 42 µM (inactive)
Fc1ccccc1-n1cc(-c2ccccc2)[nH]c1=S	> 42 µM (inactive)
COC(=O)c1ccccc1SC(CC(=O)c1ccccc1)c1ccc(F)cc1 (stereo not given)	> 42 µM (inactive)
O=C(O)c1cccc(N2C(=O)C3C4C=CC(C4=C(c4ccccc4)c4ccccc4)C3C2=O)c1 (stereo not given)	> 42 µM (inactive)
O=C(CCC(=O)OCC(=O)c1ccc(Br)cc1)Nc1cccc2cccnc12	> 42 µM (inactive)
CCOC(=O)c1[nH]c2ccc(F)cc2c1NC(=O)CCN1CCOCC1	> 42 µM (inactive)
COc1cc(NC(=S)N2CCN(C(=O)C3CCCO3)CC2)c(OC)cc1Cl (stereo not given)	> 42 µM (inactive)
COc1ccccc1CNC(=O)CCC(=O)Nc1nnc(C(C)C)s1	> 42 µM (inactive)
CCN(C(=O)Nc1ccccc1OC)c1c(N)n(Cc2ccccc2)c(=O)[nH]c1=O	> 42 µM (inactive)
